Laboratory results: PubChem BioAssay (NCI)
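Interpolation was linear, between the two tested concentrations surrounding the appropriate level; five concentrations were tested over 48 hours in 96-well plates. At the TGI there is no net growth.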 Where a SMILES comes first, the peptide text is derived from it. [ ]: non-standard residue; d: D form. The star is where a group is joined. Bn2Val = CC(C)[C@@H](C(=O)*)N(Cc1ccccc1)Cc1ccccc1; NH(3,4-diMeO-benzyl) = COc1ccc(CN*)cc1OC; NMeV = CN[C@H](C(=O)O)C(C)C

Tests used:
Test in all cases: growth of human tumour cells (NCI), 48 h
MOLT-4 leukemia = tested on: MOLT-4 leukemia
K-562 leukemia = tested on: K-562 leukemia
MALME-3M melanoma = tested on: MALME-3M melanoma
SNB-75 CNS = tested on: SNB-75 CNS
HS 578T breast = tested on: HS 578T breast
786-0 renal = tested on: 786-0 renal
PC-3 prostate = tested on: PC-3 prostate
HOP-92 NSCLC = tested on: HOP-92 NSCLC
NCI-H23 lung = tested on: NCI-H23 lung
SF-268 CNS = tested on: SF-268 CNS
NCI-H226 lung = tested on: NCI-H226 lung
HOP-62 NSCLC = tested on: HOP-62 NSCLC
MDA-MB-435 = tested on: MDA-MB-435
HCT-15 colon = tested on: HCT-15 colon
SK-MEL-28 melanoma = tested on: SK-MEL-28 melanoma
SK-MEL-2 melanoma = tested on: SK-MEL-2 melanoma
SK-OV-3 ovarian = tested on: SK-OV-3 ovarian

Row | Compound | TGI (MOLT-4 leukemia) [µM] | TGI (K-562 leukemia) [µM] | TGI (MALME-3M melanoma) [µM] | TGI (SNB-75 CNS) [µM] | TGI (HS 578T breast) [µM] | TGI (786-0 renal) [µM] | TGI (PC-3 prostate) [µM] | TGI (HOP-92 NSCLC) [µM] | TGI (NCI-H23 lung) [µM] | TGI (SF-268 CNS) [µM] | TGI (NCI-H226 lung) [µM] | TGI (HOP-62 NSCLC) [µM] | TGI (MDA-MB-435) [µM] | TGI (HCT-15 colon) [µM] | TGI (SK-MEL-28 melanoma) [µM] | TGI (SK-MEL-2 melanoma) [µM] | TGI (SK-OV-3 ovarian) [µM]
1 | CCOP(=O)(OCC)C(Nc1ccc(C(=O)O)cc1)c1ccc(C(Nc2ccc(C(=O)O)cc2)P(=O)(OCC)OCC)cc1 (configuration not stated) | > 100 | > 100 | > 100 | > 100 | > 100 | > 100 | > 100 | > 100 | > 100 | > 100 | > 100 | > 100 | > 100 | > 100 | > 100 | > 100 | > 100
2 | CC(C)NC(=O)OCc1c(COC(=O)NC(C)C)c(-c2ccc[n+](COC(=O)C(C)(C)C)c2)n2c1CCC2 | > 100 | > 100 | > 100 | > 100 | > 100 | > 100 | > 100 | > 100 | > 100 | > 100 | > 100 | > 100 | > 100 | > 100 | > 100 | > 100 | > 100
3 | COc1ccc(C2=NN(C(=O)c3cccnc3)C(O)(c3cc(F)c(Cl)cc3Cl)C2)cc1OC (configuration not stated) | > 100 | 69 | 59.1 | 62.9 | 66.9 | 62.2 | 43.3 | 50.8 | 71.7 | 39.8 | 30 | 47.7 | 87.4 | 35 | 54.4 | 32 | 86.7
4 | CCOC(=O)c1ccc(N=c2oc3ccc(OC)cc3cc2-c2nc3ccccc3[nH]2)cc1 | > 100 | > 100 | > 100 | 65.2 | > 100 | > 100 | > 100 | > 100 | > 100 | > 100 | 8.58 | > 100 | > 100 | > 100 | > 100 | > 100 | > 100
5 | CCO/C=C(\C(=O)OC)S(=O)(=O)c1ccc(C)cc1 | > 100 | > 100 | > 100 | > 100 | > 100 | > 100 | > 100 | > 100 | > 100 | > 100 | > 100 | > 100 | > 100 | > 100 | > 100 | > 100 | > 100
6 | COc1ccc(C(SCC(N)C(=O)O)(c2ccc(OC)cc2)c2ccc(OC)cc2)cc1 (configuration not stated) | 24 | > 31.6 | 16 | 19.4 | 19.5 | 20.3 | 17.9 | 31.6 | 20.6 | 19.9 | 18.3 | 17.8 | 10.8 | 18.1 | 16.8 | 18.4 | 72.3
7 | COC(=O)c1ccccc1C1CN=NC12Cc1cc(C)cc(C)c1C2=O (configuration not stated) | > 100 | > 100 | > 100 | > 100 | > 100 | > 100 | > 100 | > 100 | > 100 | > 100 | > 100 | > 100 | > 100 | 76.6 | > 100 | > 100 | > 100
8 | COC(=O)/C=C1/OC(c2ccc(C)cc2)=C(Cl)C1=O | 13.8 | 19 | 33.5 | 35.5 | 68.9 | 27 | 27.7 | 34.1 | 36.9 | 41.6 | 47.1 | 38.8 | 34.9 | 26.4 | 30.9 | 34.3 | 59.3
9 | COc1cccc(Nc2nc(N)nc(N)c2N=O)c1 | 41.8 | > 100 | > 100 | 91.1 | 82.4 | 70.2 | > 100 | 40 | 31.5 | > 100 | 90.9 | > 100 | 39.9 | 47 | 69.8 | > 100 | > 100
10 | CCOC(=O)c1cc2cc(C)cc(C(=O)c3ccc([N+](=O)[O-])cc3)c2[nH]1 | > 100 | > 100 | > 100 | > 100 | > 100 | > 100 | > 100 | > 100 | > 100 | > 100 | > 100 | > 100 | > 100 | > 100 | > 100 | > 100 | > 100
11 | COc1ccc(CNC(=O)[C@@H]2CCCN2C(=O)[C@@H]2CCCN2C(=O)[C@H](C(C)C)N(C)C(=O)[C@@H](NC(=O)[C@H](C(C)C)N(Cc2ccccc2)Cc2ccccc2)C(C)C)cc1OC (Bn2Val-V[NMeV]PP-{NH(3,4-diMeO-benzyl)}) | 72.2 | > 100 | 46.2 | 25.7 | > 100 | 26.5 | 30.8 | 28.9 | 38.6 | > 48.1 | 33.4 | 32.3 | 39 | 31.4 | 38.5 | 34.5 | 31.4
